Test results reported in US9302988B2, “Fluoromethyl-substituted pyrrole carboxamides” (GRÜNENTHAL GMBH, priority 2012, dated 2016).

What follows are compounds tested against T1, Human CaV2.2 channels (Homo sapiens, UniProt Q00975) (assay: Fluorescent assay for CaV2.2 channels using potassium depolarization to induce channel opening (FLIPR, Fluo-4)). Conditions: 3 μM test compound, 30 mM KCl, HEK293 cells stably expressing human CaV2.2; read-out: %-Inhib (CaV2.2) @3 μM @30 mM KCl.
T1 construct: expressed in transfected cells
Assay type: cell-based
Procedure, shortened: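 Channel block was read as the baseline-normalized peak Ca²⁺ signal (Fluo-4, 480/535 nm) after a high-KCl depolarizing addition (210 mM KCl buffer). Beforehand, compound sat 15 min at 25 °C on HEK293 cells carrying human CaV2.2, α2δ/β subunits and Kir2.3, in pH 7.4 buffer with 30 mM KCl.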

T1 sequence (Q00975 whole entry): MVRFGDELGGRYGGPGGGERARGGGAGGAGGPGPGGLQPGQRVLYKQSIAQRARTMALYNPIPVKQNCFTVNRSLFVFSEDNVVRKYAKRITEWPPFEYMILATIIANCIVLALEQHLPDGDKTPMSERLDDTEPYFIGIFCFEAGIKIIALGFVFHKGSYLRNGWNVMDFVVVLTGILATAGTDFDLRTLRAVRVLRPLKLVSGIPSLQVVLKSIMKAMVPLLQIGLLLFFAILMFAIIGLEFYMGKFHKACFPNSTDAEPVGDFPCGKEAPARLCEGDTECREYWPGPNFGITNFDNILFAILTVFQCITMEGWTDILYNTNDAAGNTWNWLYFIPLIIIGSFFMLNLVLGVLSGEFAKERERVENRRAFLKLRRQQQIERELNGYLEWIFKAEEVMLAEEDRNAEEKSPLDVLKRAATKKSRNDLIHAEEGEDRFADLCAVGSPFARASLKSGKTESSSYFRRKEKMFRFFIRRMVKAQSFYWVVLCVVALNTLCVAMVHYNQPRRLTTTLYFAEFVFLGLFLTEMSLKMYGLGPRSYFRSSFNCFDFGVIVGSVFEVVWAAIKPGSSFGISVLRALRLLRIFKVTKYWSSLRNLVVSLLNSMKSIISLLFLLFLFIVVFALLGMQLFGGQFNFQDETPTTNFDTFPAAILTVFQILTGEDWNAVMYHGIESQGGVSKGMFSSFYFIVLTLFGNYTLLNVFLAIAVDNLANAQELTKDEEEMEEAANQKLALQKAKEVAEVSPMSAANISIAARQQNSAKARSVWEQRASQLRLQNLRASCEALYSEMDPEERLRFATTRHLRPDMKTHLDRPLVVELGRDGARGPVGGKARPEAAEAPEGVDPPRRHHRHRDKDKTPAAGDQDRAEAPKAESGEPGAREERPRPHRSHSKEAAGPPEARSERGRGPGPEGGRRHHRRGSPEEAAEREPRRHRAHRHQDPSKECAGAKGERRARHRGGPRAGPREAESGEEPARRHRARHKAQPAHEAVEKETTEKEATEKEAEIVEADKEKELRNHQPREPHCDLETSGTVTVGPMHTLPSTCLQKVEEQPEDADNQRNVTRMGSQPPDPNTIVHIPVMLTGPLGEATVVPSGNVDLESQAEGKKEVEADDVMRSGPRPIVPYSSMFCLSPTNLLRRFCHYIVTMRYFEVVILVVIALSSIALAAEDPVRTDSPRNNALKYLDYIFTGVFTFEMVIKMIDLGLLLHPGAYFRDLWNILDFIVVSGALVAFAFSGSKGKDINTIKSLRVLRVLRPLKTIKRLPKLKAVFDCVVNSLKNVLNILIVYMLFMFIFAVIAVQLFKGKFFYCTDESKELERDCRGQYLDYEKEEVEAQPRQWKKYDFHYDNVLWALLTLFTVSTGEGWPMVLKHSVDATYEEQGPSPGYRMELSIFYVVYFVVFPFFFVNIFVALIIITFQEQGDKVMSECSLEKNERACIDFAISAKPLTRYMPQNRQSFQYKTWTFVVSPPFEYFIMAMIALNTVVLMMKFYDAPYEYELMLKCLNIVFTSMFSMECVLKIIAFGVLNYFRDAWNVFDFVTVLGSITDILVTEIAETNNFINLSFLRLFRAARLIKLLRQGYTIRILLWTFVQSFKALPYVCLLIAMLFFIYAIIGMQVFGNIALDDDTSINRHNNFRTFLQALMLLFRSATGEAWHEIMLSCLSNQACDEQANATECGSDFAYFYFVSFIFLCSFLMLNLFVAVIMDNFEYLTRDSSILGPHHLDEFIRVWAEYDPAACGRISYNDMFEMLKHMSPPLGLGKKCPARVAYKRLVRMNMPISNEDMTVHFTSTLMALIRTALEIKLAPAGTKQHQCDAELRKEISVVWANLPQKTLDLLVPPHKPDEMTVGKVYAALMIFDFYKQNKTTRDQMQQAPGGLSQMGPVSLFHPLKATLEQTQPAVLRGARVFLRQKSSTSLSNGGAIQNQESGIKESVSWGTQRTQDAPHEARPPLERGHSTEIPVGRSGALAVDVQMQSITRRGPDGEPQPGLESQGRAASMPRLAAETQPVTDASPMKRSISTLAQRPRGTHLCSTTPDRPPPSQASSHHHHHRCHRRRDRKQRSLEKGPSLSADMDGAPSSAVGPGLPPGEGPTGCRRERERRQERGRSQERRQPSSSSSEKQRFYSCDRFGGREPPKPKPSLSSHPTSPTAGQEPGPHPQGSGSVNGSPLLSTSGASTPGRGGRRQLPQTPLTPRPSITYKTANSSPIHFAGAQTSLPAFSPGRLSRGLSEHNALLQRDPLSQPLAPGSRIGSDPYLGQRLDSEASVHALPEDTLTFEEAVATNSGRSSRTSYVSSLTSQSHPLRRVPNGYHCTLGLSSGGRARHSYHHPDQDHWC
T1 sequence (P54289 25-1103, further chain): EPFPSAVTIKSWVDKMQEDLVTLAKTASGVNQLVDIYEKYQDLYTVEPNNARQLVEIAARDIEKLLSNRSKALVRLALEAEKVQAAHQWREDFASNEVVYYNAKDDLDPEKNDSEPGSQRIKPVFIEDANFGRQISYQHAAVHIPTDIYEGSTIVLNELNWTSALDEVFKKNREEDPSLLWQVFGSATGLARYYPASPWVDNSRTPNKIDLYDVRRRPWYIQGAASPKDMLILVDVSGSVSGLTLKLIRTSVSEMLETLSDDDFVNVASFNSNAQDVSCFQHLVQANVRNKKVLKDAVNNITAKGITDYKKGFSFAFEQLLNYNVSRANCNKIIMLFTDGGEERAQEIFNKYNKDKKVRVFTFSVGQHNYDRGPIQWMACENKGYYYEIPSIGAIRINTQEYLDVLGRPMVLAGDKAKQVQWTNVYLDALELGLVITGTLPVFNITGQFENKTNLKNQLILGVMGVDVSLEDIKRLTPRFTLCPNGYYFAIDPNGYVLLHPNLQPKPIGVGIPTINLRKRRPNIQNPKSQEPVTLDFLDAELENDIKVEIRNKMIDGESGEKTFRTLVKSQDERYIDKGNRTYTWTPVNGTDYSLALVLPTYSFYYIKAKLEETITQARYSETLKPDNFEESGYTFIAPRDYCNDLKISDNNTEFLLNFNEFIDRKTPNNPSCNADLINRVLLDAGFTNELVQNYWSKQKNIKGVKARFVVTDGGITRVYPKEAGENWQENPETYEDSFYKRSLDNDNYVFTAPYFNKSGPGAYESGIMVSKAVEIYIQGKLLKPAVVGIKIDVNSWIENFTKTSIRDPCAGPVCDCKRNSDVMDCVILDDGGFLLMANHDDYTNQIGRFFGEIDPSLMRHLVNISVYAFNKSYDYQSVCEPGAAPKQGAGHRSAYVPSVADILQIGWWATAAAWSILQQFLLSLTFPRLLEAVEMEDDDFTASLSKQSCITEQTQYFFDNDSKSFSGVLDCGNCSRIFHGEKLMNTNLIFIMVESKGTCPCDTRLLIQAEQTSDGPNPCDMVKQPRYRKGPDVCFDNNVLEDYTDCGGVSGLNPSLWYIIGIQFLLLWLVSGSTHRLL
T1 sequence (P54284 whole entry, further chain): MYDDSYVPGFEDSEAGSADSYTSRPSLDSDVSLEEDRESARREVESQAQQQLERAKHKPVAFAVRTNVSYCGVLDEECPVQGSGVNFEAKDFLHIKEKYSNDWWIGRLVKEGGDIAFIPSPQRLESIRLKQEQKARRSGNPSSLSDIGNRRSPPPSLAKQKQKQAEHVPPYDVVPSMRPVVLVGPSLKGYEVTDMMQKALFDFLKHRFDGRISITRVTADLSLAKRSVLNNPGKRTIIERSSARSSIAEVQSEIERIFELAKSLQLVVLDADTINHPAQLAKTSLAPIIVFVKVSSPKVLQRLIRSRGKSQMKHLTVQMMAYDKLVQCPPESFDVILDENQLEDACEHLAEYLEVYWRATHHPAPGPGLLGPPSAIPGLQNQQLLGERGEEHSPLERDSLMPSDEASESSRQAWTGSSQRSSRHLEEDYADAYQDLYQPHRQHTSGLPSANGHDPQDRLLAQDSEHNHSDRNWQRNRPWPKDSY

Compound | inhibition at 3 µM
CN(CC1CC1)C(=O)c1c(-c2ccc(Cl)cc2)cc(C(F)(F)F)n1Cc1ccccc1 [SC-76, 1-Benzyl-3-(4-chlorophenyl)-N-(cyclopropyl-methyl)-N-methyl-5-(trifluoromethyl)-1H-pyrrole-2-carboxylic acid amide] | 75 to 95%
CN(C(=O)c1c(-c2ccc(Cl)cc2)cc(C(F)(F)F)n1Cc1ccccc1)C(C)(C)C [SC-77, 1-Benzyl-N-tert-butyl-3-(4-chlorophenyl)-N-methyl-5-(trifluoromethyl)-1H-pyrrole-2-carboxylic acid amide] | 75 to 95%
CN(CC1(C)COC1)C(=O)c1c(-c2ccc(Cl)cc2)cc(C(F)(F)F)n1Cc1ccccc1 [SC-78, 1-Benzyl-3-(4-chlorophenyl)-N-methyl-N-[(3-methyl-oxetan-3-yl)-methyl]-5-(trifluoromethyl)-1H-pyrrole-2-carboxylic acid amide] | > 95%
CN(CC(C)(C)CO)C(=O)c1c(-c2ccc(Cl)cc2)cc(C(F)(F)F)n1Cc1ccccc1 [SC-79, 1-Benzyl-3-(4-chlorophenyl)-N-(3-hydroxy-2,2-dimethyl-propyl)-N-methyl-5-(trifluoromethyl)-1H-pyrrole-2-carboxylic acid amide] | > 95%
CN(C)C(=O)c1c(-c2ccc(Cl)cc2)cc(C(F)(F)F)n1Cc1ccccc1 [SC-80, 1-Benzyl-3-(4-chlorophenyl)-N,N-dimethyl-5-(trifluoromethyl)-1H-pyrrole-2-carboxylic acid amide] | 75 to 95%
O=C1CN(C(=O)c2c(-c3ccc(Cl)cc3)cc(C(F)(F)F)n2Cc2cccc(Cl)c2)CCN1 [SC-81, 4-[3-(4-Chlorophenyl)-1-[(3-chlorophenyl)-methyl]-5-(trifluoromethyl)-1H-pyrrole-2-carbonyl]-piperazin-2-one] | > 95%
CC1(C)CN(C(=O)c2c(-c3ccc(Cl)cc3)cc(C(F)(F)F)n2Cc2ccccc2)CCN1 [SC-82, [1-Benzyl-3-(4-chlorophenyl)-5-(trifluoromethyl)-1H-pyrrol-2-yl]-(3,3-dimethyl-piperazin-1-yl)-methanone] | 75 to 95%
CN(C(=O)c1c(-c2ccc(Cl)cc2)cc(C(F)(F)F)n1Cc1ccccc1)C1CCS(=O)(=O)C1 (stereo not shown) [SC-83, 1-Benzyl-3-(4-chlorophenyl)-N-(1,1-dioxo-thiolan-3-yl)-N-methyl-5-(trifluoromethyl)-1H-pyrrole-2-carboxylic acid amide] | > 95%
CN(CCC(C)(C)C)C(=O)c1c(-c2ccc(Cl)cc2)cc(C(F)(F)F)n1Cc1ccccc1 [SC-84, 1-Benzyl-3-(4-chlorophenyl)-N-(3,3-dimethyl-butyl)-N-methyl-5-(trifluoromethyl)-1H-pyrrole-2-carboxylic acid amide] | 40 to 75%
CN(CC(C)(C)N1CCOCC1)C(=O)c1c(-c2ccc(Cl)cc2)cc(C(F)(F)F)n1Cc1ccccc1 [SC-85, 1-Benzyl-3-(4-chlorophenyl)-N-methyl-N-(2-methyl-2-morpholin-4-yl-propyl)-5-(trifluoromethyl)-1H-pyrrole-2-carboxylic acid amide] | > 95%
O=C(c1c(-c2ccc(Cl)cc2F)cc(C(F)(F)F)n1Cc1ccccc1)N1CCOCC1 [SC-86, [1-Benzyl-3-(4-chloro-2-fluoro-phenyl)-5-(trifluoromethyl)-1H-pyrrol-2-yl]-morpholin-4-yl-methanone] | > 95%
CN(CC(C)(C)O)C(=O)c1c(-c2ccc(Cl)cc2F)cc(C(F)(F)F)n1Cc1ccccc1 [SC-87, 1-Benzyl-3-(4-chloro-2-fluoro-phenyl)-N-(2-hydroxy-2-methyl-propyl)-N-methyl-5-(trifluoromethyl)-1H-pyrrole-2-carboxylic acid amide] | > 95%
CN(CC(C)(C)C)C(=O)c1c(-c2ccc(Cl)cc2F)cc(C(F)(F)F)n1Cc1ccccc1 [SC-88, 1-Benzyl-3-(4-chloro-2-fluoro-phenyl)-N-(2,2-dimethyl-propyl)-N-methyl-5-(trifluoromethyl)-1H-pyrrole-2-carboxylic acid amide] | 75 to 95%
O=C1CN(C(=O)c2c(-c3ccc(Cl)cc3F)cc(C(F)(F)F)n2Cc2ccccc2)CCN1 [SC-89, 4-[1-Benzyl-3-(4-chloro-2-fluoro-phenyl)-5-(trifluoromethyl)-1H-pyrrole-2-carbonyl]-piperazin-2-one] | 75 to 95%
CN(CCS(C)(=O)=O)C(=O)c1c(-c2ccc(Cl)cc2F)cc(C(F)(F)F)n1Cc1ccccc1 [SC-90, 1-Benzyl-3-(4-chloro-2-fluoro-phenyl)-N-methyl-N-(2-methylsulfonyl-ethyl)-5-(trifluoromethyl)-1H-pyrrole-2-carboxylic acid amide] | > 95%
CN(CC(C)(C)S(C)(=O)=O)C(=O)c1c(-c2ccc(Cl)cc2)cc(C(F)(F)F)n1Cc1ccccc1 [SC-92, 1-Benzyl-3-(4-chlorophenyl)-N-methyl-N-(2-methyl-2-methylsulfonyl-propyl)-5-(trifluoromethyl)-1H-pyrrole-2-carboxylic acid amide] | > 95%

Compound | inhibition at 3 µM
Cc1c(-c2ccc(Cl)cc2)c(C(=O)N2CC(F)(F)C2)n(Cc2ccccc2)c1C(F)(F)F [SC-93, [1-Benzyl-3-(4-chlorophenyl)-4-methyl-5-(trifluoromethyl)-1H-pyrrol-2-yl]-(3,3-difluoro-azetidin-1-yl)-methanone] | 75 to 95%
O=C(c1c(-c2ccc(Cl)cc2)cc(C(F)(F)F)n1Cc1ccccc1)N1CC(F)(F)C1 [SC-94, [1-Benzyl-3-(4-chlorophenyl)-5-(trifluoromethyl)-1H-pyrrol-2-yl]-(3,3-difluoro-azetidin-1-yl)-methanone] | 75 to 95%
Cc1c(-c2ccc(F)cc2)c(C(=O)N2CC(F)(F)C2)n(Cc2ccccc2)c1C(F)(F)F [SC-95, [1-Benzyl-3-(4-fluorophenyl)-4-methyl-5-(trifluoromethyl)-1H-pyrrol-2-yl]-(3,3-difluoro-azetidin-1-yl)-methanone] | 75 to 95%
Cc1c(-c2ccc(C(F)(F)F)cc2)c(C(=O)N2CC(F)(F)C2)n(Cc2ccccc2)c1C(F)(F)F [SC-96, [1-Benzyl-4-methyl-5-(trifluoromethyl)-3-[4-(trifluoromethyl)-phenyl]-1H-pyrrol-2-yl]-(3,3-difluoro-azetidin-1-yl)-methanone] | 40 to 75%
Cc1c(-c2ccc(OC(F)(F)F)cc2)c(C(=O)N2CC(F)(F)C2)n(Cc2ccccc2)c1C(F)(F)F [SC-97, [1-Benzyl-4-methyl-5-(trifluoromethyl)-3-[4-(trifluoromethyloxy)-phenyl]-1H-pyrrol-2-yl]-(3,3-difluoro-azetidin-1-yl)-methanone] | 40 to 75%
Cc1c(-c2ccc(Cl)c(F)c2)c(C(=O)N2CC(F)(F)C2)n(Cc2ccccc2)c1C(F)(F)F [SC-98, [1-Benzyl-3-(4-chloro-3-fluoro-phenyl)-4-methyl-5-(trifluoromethyl)-1H-pyrrol-2-yl]-(3,3-difluoro-azetidin-1-yl)-methanone] | 40 to 75%
Cc1c(-c2ccc(F)c(Cl)c2)c(C(=O)N2CC(F)(F)C2)n(Cc2ccccc2)c1C(F)(F)F [SC-99, [1-Benzyl-3-(3-chloro-4-fluoro-phenyl)-4-methyl-5-(trifluoromethyl)-1H-pyrrol-2-yl]-(3,3-difluoro-azetidin-1-yl)-methanone] | 40 to 75%
Cc1c(-c2ccc(Cl)cc2F)c(C(=O)N2CC(F)(F)C2)n(Cc2ccccc2)c1C(F)(F)F [SC-100, [1-Benzyl-3-(4-chloro-2-fluoro-phenyl)-4-methyl-5-(trifluoromethyl)-1H-pyrrol-2-yl]-(3,3-difluoro-azetidin-1-yl)-methanone] | 75 to 95%
Cc1c(-c2ccc(F)cc2)c(C(=O)N2CCOCC2)n(Cc2ccccc2)c1C(F)(F)F [SC-101, [1-Benzyl-3-(4-fluorophenyl)-4-methyl-5-(trifluoromethyl)-1H-pyrrol-2-yl]-morpholin-4-yl-methanone] | > 95%
Cc1c(-c2ccc(C(F)(F)F)cc2)c(C(=O)N2CCOCC2)n(Cc2ccccc2)c1C(F)(F)F [SC-102, [1-Benzyl-4-methyl-5-(trifluoromethyl)-3-[4-(trifluoromethyl)-phenyl]-1H-pyrrol-2-yl]-morpholin-4-yl-methanone] | 75 to 95%
Cc1c(-c2ccc(Cl)c(F)c2)c(C(=O)N2CCOCC2)n(Cc2ccccc2)c1C(F)(F)F [SC-103, [1-Benzyl-3-(4-chloro-3-fluoro-phenyl)-4-methyl-5-(trifluoromethyl)-1H-pyrrol-2-yl]-morpholin-4-yl-methanone] | 75 to 95%
Cc1c(-c2ccc(F)c(Cl)c2)c(C(=O)N2CCOCC2)n(Cc2ccccc2)c1C(F)(F)F [SC-104, [1-Benzyl-3-(3-chloro-4-fluoro-phenyl)-4-methyl-5-(trifluoromethyl)-1H-pyrrol-2-yl]-morpholin-4-yl-methanone] | 75 to 95%
Cc1c(-c2ccc(OC(F)(F)F)cc2)c(C(=O)N2CCOCC2)n(Cc2ccccc2)c1C(F)(F)F [SC-105, [1-Benzyl-4-methyl-5-(trifluoromethyl)-3-[4-(trifluoromethyloxy)-phenyl]-1H-pyrrol-2-yl]-morpholin-4-yl-methanone] | 75 to 95%
Cc1c(-c2ccc(Cl)cc2)c(C(=O)N(C)CC(C)(C)CO)n(Cc2ccccc2)c1C(F)(F)F [SC-106, 1-Benzyl-3-(4-chlorophenyl)-N-(3-hydroxy-2,2-dimethyl-propyl)-N,4-dimethyl-5-(trifluoromethyl)-1H-pyrrole-2-carboxylic acid amide] | > 95%
Cc1c(-c2ccc(Cl)cc2F)c(C(=O)N(C)CC(C)(C)CO)n(Cc2ccccc2)c1C(F)(F)F [SC-107, 1-Benzyl-3-(4-chloro-2-fluoro-phenyl)-N-(3-hydroxy-2,2-dimethyl-propyl)-N,4-dimethyl-5-(trifluoromethyl)-1H-pyrrole-2-carboxylic acid amide] | > 95%
